This note sets out measurements from patent US8377918B2 (ACC Therapeutics Inc, priority 2005, dated 2013).

One test deals with A2780/CP70 cells. Description: Annexin V apoptosis assay, A2780/CP70. The format is cell-based, human. The settings on record: 24 h. On the procedure: (§1) FIG. 1. […] (A) A2780/CP70 cells and human fibroblast GM847 cells were seeded in 96-well plate at 4×10^3 cells per well and incubated overnight. […] The cells were incubated for 24 h. Cell proliferation was determined by MTT reduction. […] Cells were trypsinized, harvested, washed once with PBS buffer, and stained using the Annexin-V-Folus Kit as per the manufacture's instructions. […] After incubation, all cells were collected and total DNA was isolated. Eight (8) μg of DNA was resolved on 1.8% agarose gel. […] (D) Treatment of GM847 cells was the same as that of 5D. […] Cleavage of caspase-3 and PARP was detected by western-blot.
FIG. 10. […] The cisplatin-resistant ovarian cancer A2780/CP70 cells were seeded in a petri dish. […] After treatment, the cells were collected and the relative cellular apoptosis was analyzed by Annexin V Kit (Roche), and compared to the control.

Test [1] has as its system human fibroblast GM847 cells. Description: MTT proliferation, human fibroblast GM847 cells. Format: cell-based. The settings on record: same experimental conditions as cancer cells, 24 h. The method, then: as §1

For `O=c1cc(-c2ccc(O)cc2)oc2cc(O)cc(O)c12` [apigenin, 4′,5,7,-trihydroxyflavone], the cells undergoing apoptosis in the test on A2780/CP70 cells (A2780/CP70, 10 μM apigenin or 10 μM apigenin plus 10 μM cisplatin) stood at 12%. Also, the induction of apoptosis entry in the test with A2780/CP70 cells (A2780/CP70, apigenin alone) is on record as “specifically induced apoptosis”. Further, the “effect on human normal fibroblast cells” value in test [1] is reported as “little effects”.
